Measured values published in patent US6358883B1, “Pesticidal and parasiticidal use of 1-aryl-1-(substituted thio, sulfinyl and sulfonyl)-2-nitroethane compounds” (American Cyanamid Company, priority 1998, dated 2002).

Tests used:
Assay type in all cases: in vivo
[1] = test system: Diabrotica undecimpunctata howardi, eggs-southern corn rootworm (SCR-Eggs); assay: Southern corn rootworm eggs (SCR-Eggs) treated diet test; set-up: key: 0 = no effect; 1 = 10-25% kill; 2 = 26-35% kill; 3 = 36-45% kill; 4 = 46-55% kill; 5 = 56-65% kill; 6 = 66-75% kill; 7 = 76-85% kill; 8 = 86-99% kill; 9 = 100% kill; details: mortality after 7 days
How it was run: (§1)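 Eggs of S. eridania or D. undecimpunctata howardi were set on artificial diet pretreated with test solution (10,000 ppm stock in 35% aqueous acetone, water dilutions) and dried. Wells were sealed with vented clear covers, and mortality was scored at day 7.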

[2] = test system: Tetranychus urticae (OP-resistant strain), 2-spotted spider mite (TSM); assay: 2-spotted spider mite (TSM) plant dip test; set-up: key: 0 = no effect; 1 = 10-25% kill; 2 = 26-35% kill; 3 = 36-45% kill; 4 = 46-55% kill; 5 = 56-65% kill; 6 = 66-75% kill; 7 = 76-85% kill; 8 = 86-99% kill; 9 = 100% kill; details: mortality after 2 days
How it was run: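 Mortality counted 2 days after a 3 s agitated dip of infested Sieva lima bean plants. Compound came from a 10,000 ppm stock in 35% aqueous acetone, with further dilution in water. Each primary leaf carried about 100 OP-resistant mites, allowed to settle ~2 h before dipping.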

[3] = test system: M. incognita (Root Knot Nematode) larvae; assay: Evaluation of test compounds against M. incognita larvae in microtiter plate wells (movement score); details: larvae scored for movement after 20-24 hours; also: key: A score of '9' indicates inactive worms with a straight, sticklike morphology; A score of '8' indicates inactive worms with a limp, curled or curved morphology; A score of '7' indicates dead/paralyzed worms after 72 hours
How it was run: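 Scoring is by larval movement: dead or paralyzed worms count as positive, and a "7" means dead/paralyzed at 72 hours. Freshly hatched root-knot larvae (50-65 per well) in buffered S Medium were incubated with compounds under plate sealers for 20-24 h before the first read.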

[4] = test system: Diabrotica virgifera virgifera Leconte, 2nd instar western corn rootworm (WCR); assay: Western corn rootworm (WCR) soil test; set-up: key: 0 = no effect; 1 = 10-25% kill; 2 = 26-35% kill; 3 = 36-45% kill; 4 = 46-55% kill; 5 = 56-65% kill; 6 = 66-75% kill; 7 = 76-85% kill; 8 = 86-99% kill; 9 = 100% kill
How it was run: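 Ten 2nd-instar rootworm larvae are placed in jars of moist soil with millet seed and talc treated with 1.25 mg active ingredient (roughly 50 kg/ha) from a 35% acetone-in-water solution. After 5 days mortality is scored, counting missing larvae as dead.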

[5] = test system: Spodoptera eridania, eggs-southern armyworm (SAW-Eggs); assay: Southern armyworm eggs (SAW-Eggs) treated diet test; set-up: key: 0 = no effect; 1 = 10-25% kill; 2 = 26-35% kill; 3 = 36-45% kill; 4 = 46-55% kill; 5 = 56-65% kill; 6 = 66-75% kill; 7 = 76-85% kill; 8 = 86-99% kill; 9 = 100% kill; details: mortality after 7 days
How it was run: as §1

[6] = test system: Aphis gossypii, cotton aphid (CA); assay: Cotton aphid (CA) cotyledon dip test; set-up: key: 0 = no effect; 1 = 10-25% kill; 2 = 26-35% kill; 3 = 36-45% kill; 4 = 46-55% kill; 5 = 56-65% kill; 6 = 66-75% kill; 7 = 76-85% kill; 8 = 86-99% kill; 9 = 100% kill; details: mortality after 5 days
How it was run: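 Mortality was scored 5 days after dipping aphid-infested cotyledons, colonised overnight from a transfer leaf, into water dilutions of a 35% acetone/water compound solution.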

[7] = test system: Spodoptera eridania, 2nd instar larvae, southern armyworm (SAW); assay: Southern armyworm (SAW) leaf dip test; set-up: key: 0 = no effect; 1 = 10-25% kill; 2 = 26-35% kill; 3 = 36-45% kill; 4 = 46-55% kill; 5 = 56-65% kill; 6 = 66-75% kill; 7 = 76-85% kill; 8 = 86-99% kill; 9 = 100% kill
How it was run: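 Ten 2nd instar caterpillars feed on a Sieva lima bean leaf that was dipped 3 seconds in test solution (stock 10,000 ppm in 35% acetone/water, water-diluted). Five days later, larvae are assessed for death, feeding reduction or abnormal molting.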

[8] = test system: C. elegans (Bristol strain); assay: Evaluation of test compounds against C. elegans (motility, 96-well plate); set-up: key: 9=complete kill in 4 hours; 8=complete kill in 24 hours; 7=markedly reduced motility in approximately 95% of worms in 24 hours; 0=normal motility, same as controls; details: motility at 4 and 24 hours
How it was run: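 Activity is a semi-quantitative visual score of adult and larval movement, read at 4 h and 24 h post-immersion at 20 °C after gentle tapping. Worms were suspended in Na buffer in wells where compound, dissolved in 80% acetone, had been evaporated.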

| Structure (SMILES) | SCR Eggs (1000 ppm) rating [1] | TSM (300 ppm) rating [2] | M. incognita (150 ppm) score [3] | WCR (50 ppm) rating [4] | SAW Eggs (300 ppm) rating [5] | CA (300 ppm) rating [6] | SAW (300 ppm) rating [7] | Rating Against C. elegans (150 ppm) [8] |
| --- | --- | --- | --- | --- | --- | --- | --- | --- |
| COC(=O)CSC(C[N+](=O)[O-])c1cccc(C#N)c1 (racemic) [Example 98] | 0 | 3 (3 = 36-45% kill) | 0 | 0 | 0 | 0 | 5 (5 = 56-65% kill) | 8 |
| CCOC(=O)CSC(C[N+](=O)[O-])c1ccc(OC)cc1 (centres unmarked) [Example 48] | 0 | 0 | 9 | 0 | 0 | 0 | 0 | 9 |
| CCCCOC(=O)CSC(C[N+](=O)[O-])c1cccc(C#N)c1 (racemic) [Example 101] | 0 | 0 | 9 | 0 | 0 | 0 | 0 | 0 |
| CCCCOC(=O)CSC(C[N+](=O)[O-])c1ccc(OC(F)(F)F)cc1 (racemic) [Example 120] | 0 | 0 | 9 | 0 | 0 | 0 | 0 | 0 |
| COc1ccc(C(C[N+](=O)[O-])SCC(=O)OCCCCCC(C)C)cc1 (centres unmarked) [Example 50] | 0 | 0 | 0 | 0 | 9 (9 = 100% kill) | 0 | 0 | 7 |
| CCCOC(=O)CSC(C[N+](=O)[O-])c1cccnc1 (centres unmarked) [Example 178] | 0 | 0 | 9 | 0 | 0 | 0 | 0 | 0 |
| CCCCC(CC)COC(=O)CSC(C[N+](=O)[O-])c1ccc2c(c1)OCO2 (centres unmarked) [Example 22] | 0 | 0 | 0 | 0 | 0 | 0 | 0 | 0 |
| COc1cccc(C(C[N+](=O)[O-])SCc2ccccc2)c1 (centres unmarked) [Example 60] | 0 | 0 | 0 | 0 | 0 | 0 | 0 | 0 |
| CCCSC(C[N+](=O)[O-])c1cccnc1 (centres unmarked) [Example 175] | 0 | 0 | 9 | 0 | 0 | 0 | 0 | 0 |
| CCOC(=O)CSC(C[N+](=O)[O-])c1ccc(OC(F)(F)F)cc1 (racemic) [Example 118] | 0 | 0 | 0 | 0 | 9 (9 = 100% kill) | 0 | 0 | 8 |
| CCCCOC(=O)CSC(C[N+](=O)[O-])c1ccc2c(c1)OCO2 (centres unmarked) [Example 20] | 0 | 0 | 9 | 0 | 0 | 0 | 0 | 8 |
| CCCSC(C[N+](=O)[O-])c1ccc(OC)cc1 (centres unmarked) [Example 53] | 0 | 0 | 9 | 0 | 0 | 0 | 4 (4 = 46-55% kill) | 9 |
| COC(=O)CSC(C[N+](=O)[O-])c1ccc(OC(F)(F)F)cc1 (racemic) [Example 117] | 0 | 0 | 0 | 0 | 0 | 0 | 0 | 8 |
| COC(=O)CSC(C[N+](=O)[O-])c1ccc2ccccc2c1 (racemic) [Example 110] | 0 | 0 | 0 | 0 | 0 | 0 | 0 | 9 |
| CCCCOC(=O)CSC(C[N+](=O)[O-])c1ccc2ccccc2c1 (racemic) [Example 113] | 0 | 0 | 0 | 0 | 9 (9 = 100% kill) | 0 | 3 (3 = 36-45% kill) | 9 |
| C=CCSC(C[N+](=O)[O-])c1cccc([N+](=O)[O-])c1 (centres unmarked) [Example 129] | 0 | 0 | 0 | 0 | 0 | 0 | 0 | 0 |
| O=C(CSC(C[N+](=O)[O-])c1ccc2c(c1)OCO2)OCc1ccccc1 (racemic) [Example 106] | 0 | 0 | 0 | 0 | 0 | 0 | 0 | 8 |
| O=[N+]([O-])CC(SCc1ccccc1)c1ccc2c(c1)OCO2 (centres unmarked) [Example 23] | 9 (9 = 100% kill) | 0 | 8 | 4 (4 = 46-55% kill) | 9 (9 = 100% kill) | 4 (4 = 46-55% kill) | 8 (8 = 86-99% kill) | 7 |
| CCCCOC(=O)CSC(C[N+](=O)[O-])c1cccc(OC)c1 (centres unmarked) [Example 57] | 0 | 0 | 9 | 0 | 0 | 0 | 0 | 7 |
